# Laboratory results reported in article PMC8234031, “Modular Assembly of Phosphite Dehydrogenase and Phenylacetone Monooxygenase for Tuning Cofactor Regeneration” (Biomolecules, 2021).
# Molecular target: T1, PAMOI (RIDD-tagged PAMO) (Thermobifida fusca, UniProt Q47PU3)
# T1 construct: N-terminal 6xHis, C-terminal (GGGGS)x3 linker and 44-residue RIDD tag, kept; E. coli; 70 kDa; homodimer through the RIDD tag
# Assay: UV-Vis absorbance ratio A280/A441 of the purified protein
# Format: binding
# Conditions: co-purified flavin; ratio given for the tagged PAMO fusions together
# T1 sequence (Q47PU3 whole entry): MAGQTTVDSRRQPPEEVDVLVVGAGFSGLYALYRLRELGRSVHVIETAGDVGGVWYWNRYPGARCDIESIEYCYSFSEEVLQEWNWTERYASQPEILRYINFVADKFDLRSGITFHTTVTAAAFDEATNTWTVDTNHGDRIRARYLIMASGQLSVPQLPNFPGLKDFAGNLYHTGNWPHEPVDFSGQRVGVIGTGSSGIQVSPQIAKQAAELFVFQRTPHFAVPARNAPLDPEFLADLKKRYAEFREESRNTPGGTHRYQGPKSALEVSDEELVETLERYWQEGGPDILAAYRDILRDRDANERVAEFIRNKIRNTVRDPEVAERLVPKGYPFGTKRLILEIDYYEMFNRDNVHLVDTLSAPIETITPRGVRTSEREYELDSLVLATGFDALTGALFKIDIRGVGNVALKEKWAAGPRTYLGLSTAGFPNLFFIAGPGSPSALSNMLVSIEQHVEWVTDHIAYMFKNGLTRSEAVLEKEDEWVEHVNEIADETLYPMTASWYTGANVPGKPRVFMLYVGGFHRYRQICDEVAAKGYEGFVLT
compound,measurement,value
Cc1cc2nc3c(=O)[nH]c(=O)nc-3n(C[C@H](O)[C@H](O)[C@H](O)COP(=O)(O)OP(=O)(O)OC[C@H]3O[C@@H](n4cnc5c(N)ncnc54)[C@H](O)[C@@H]3O)c2cc1C [FAD],UV-Vis absorbance ratio A280/A441 of the purified protein,The tagged variants of PAMO were purified as yellow proteins
